Measured values taken from patent US20250223268A1, “4-Methylsulfonylbenzamide Compound, Preparation Method, Herbicidal Composition And Use” (Jiangsu Flag Chemical Industry Co., Ltd., priority 2022, published 2025).

Legend:
Assay in all cases: Greenhouse herbicidal activity assay, post-emergence
Type in all cases: in vivo
Leptochloa chinensis = details: Post-emergence test, rate 150 g a.i./hm^2; grade by fresh weight inhibition rate
From the text: (§1) Post-emergence: Seeds of gramineous weeds (Echinochloa crusgalli, Echinochloa crusgalli var. zelayensis, Echinochloa phyllopogon, Eleusine indica, Digitaria sanguinalis, Leptochloa chinensis, Setaria viridis, Alopecurus japonicus Steud, Beckmannia syzigachne, Polypogon fugax, Alopecurus aequalis, Lolium multiflorum, Poa annua, Aegilops tataschii, Avena fatua, Alopecurus myosuroides, Bromus japonicus), broadleaf weeds (Eclipta prostrata, Amaranthus retroflexus, Rorippa indica, Myosoton aquaticum, Veronica didyma, Galium aparine, Solanum nigrum, Xanthium sibiricum, Conyza canadensis, Sesbania cannabina, Sagittaria trifolia), and Cyperus iria (Cyperus iria, Scirpus juncoides, Cyperus difformis, etc.) were sown in plastic pots (7 cm diameter) with nutrient soil and bottom holes. Crop seeds (including Oryza sativa subsp. indica, Oryza sativa subsp. japonica, Oryza sativa L. var. Glutinosa matsum, Triticum aestivum, Zea mays, Sorghum bicolor, Setaria italica, Glycine max, Gossypium hirsutum, Brassica napus, Arachis hypogaea) were sown in plastic pots (10 cm diameter) with nutrient soil and bottom holes. After sowing, the pots were placed in the growth chamber until the plants reached the 3-6 leaf stage for foliar spraying. Post-treatment, the materials were air-dried naturally and returned to the growth chamber. Results were assessed 14-21 days later.
(§2) • A: Fresh weight inhibition rate≥80% to 100%; • B: Fresh weight inhibition rate[…] to <80%; • C: Fresh weight inhibition rate≥40% to <60%; • D: Fresh weight inhibition rate≥20% to <40%; • E: Fresh weight inhibition rate<20%; • NT: Not tested.

Eclipta prostrata = details: Post-emergence test, rate 150 g a.i./hm^2, grade by fresh weight inhibition rate; for pest or weed control at 150 g/ha: Eclipta prostrata, read-out: Control efficacy grade, Eclipta prostrata
From the text: as §1, §2

Cyperus iria = details: Post-emergence test, rate 150 g a.i./hm^2, grade by fresh weight inhibition rate; for pest or weed control at 150 g/ha: Cyperus iria, read-out: Control efficacy grade, Cyperus iria
From the text: as §1, §2

| SMILES | Control efficacy grade, Leptochloa chinensis (Leptochloa chinensis) | Control efficacy grade, Cyperus iria (Cyperus iria) | also measured |
| --- | --- | --- | --- |
| C#CC[S+]([O-])c1c(S(C)(=O)=O)ccc(C(=O)Nc2nnc(C)o2)c1Cl (racemic) [Compound 3-148] | A (Fresh weight inhibition rate≥80% to 100%) | – | – |
| Cc1nnc(NC(=O)c2ccc(S(C)(=O)=O)c([S+]([O-])CC(F)(F)C(F)(F)F)c2Cl)o1 (racemic) [Compound 3-173] | A (Fresh weight inhibition rate≥80% to 100%) | – | – |
| C=CC[S+]([O-])c1c(S(C)(=O)=O)ccc(C(=O)Nc2nnc(C(C)C)o2)c1Cl (racemic) [Compound 3-571] | – | A (Fresh weight inhibition rate≥80% to 100%) | Control efficacy grade, Eclipta prostrata (Eclipta prostrata): A (Fresh weight inhibition rate≥80% to 100%) |
| CCC(C)Sc1c(S(C)(=O)=O)ccc(C(=O)Nc2nonc2C)c1Cl (racemic) [Compound 4-16] | – | A (Fresh weight inhibition rate≥80% to 100%) | – |
| CCCS(=O)(=O)c1c(S(C)(=O)=O)ccc(C(=O)N(C)c2nnnn2C)c1Cl [Compound 1-101] | B (Fresh weight inhibition rate≥260% to <80%) | – | Control efficacy grade, Eclipta prostrata (Eclipta prostrata): A (Fresh weight inhibition rate≥80% to 100%) |
| Cc1nnc(NC(=O)c2ccc(S(C)(=O)=O)c(SCc3ccccc3)c2Cl)o1 [Compound 3-67] | – | A (Fresh weight inhibition rate≥80% to 100%) | – |
| Cc1nnc(NC(=O)c2ccc(S(C)(=O)=O)c(SC3CCCCC3)c2Cl)o1 [Compound 3-92] | – | A (Fresh weight inhibition rate≥80% to 100%) | – |
| CS(=O)(=O)c1ccc(C(=O)Nc2nnco2)c(Cl)c1S(=O)(=O)CCCl [Compound 3-382] | A (Fresh weight inhibition rate≥80% to 100%) | – | – |
| CCCCSc1c(S(C)(=O)=O)ccc(C(=O)Nc2nnc(CC)o2)c1Cl [Compound 3-393] | B (Fresh weight inhibition rate≥260% to <80%) | A (Fresh weight inhibition rate≥80% to 100%) | – |
| CCCCS(=O)(=O)c1c(S(C)(=O)=O)ccc(C(=O)Nc2nnc(CC)o2)c1Cl [Compound 3-397] | – | A (Fresh weight inhibition rate≥80% to 100%) | Control efficacy grade, Eclipta prostrata (Eclipta prostrata): A (Fresh weight inhibition rate≥80% to 100%) |
| CCc1nnc(NC(=O)c2ccc(S(C)(=O)=O)c(S(=O)(=O)CCCl)c2Cl)o1 [Compound 3-498] | A (Fresh weight inhibition rate≥80% to 100%) | – | – |
| CCCSc1c(S(C)(=O)=O)ccc(C(=O)Nc2nnc(C(C)C)o2)c1Cl [Compound 3-499, 2-chloro-N-(5-isopropyl-1,3,4-oxadiazol-2-yl)-4-(methylsulfonyl)-3-(propylthio)benzamide] | – | – | pest or weed control at 150 g/ha (Cyperus iria): 80 to 100% |
| CCCS(=O)(=O)c1c(S(C)(=O)=O)ccc(C(=O)Nc2nonc2C)c1Cl [Compound 4-5, 2-chloro-N-(4-methyl-1,2,5-oxadiazol-3-yl)-4-(methylsulfonyl)-3-(propylsulfonyl)benzamide] | – | – | pest or weed control at 150 g/ha (Eclipta prostrata): 80 to 100%; pest or weed control at 150 g/ha (Cyperus iria): 80 to 100% |
| Cc1nonc1NC(=O)c1ccc(S(C)(=O)=O)c(SC(C)C)c1Cl [Compound 4-6] | A (Fresh weight inhibition rate≥80% to 100%) | – | – |
| Cc1nonc1NC(=O)c1ccc(S(C)(=O)=O)c(SCC2CC2)c1Cl [Compound 4-32, 2-chloro-3-((cyclopropylmethyl)thio)-N-(4-meth 1-1,2,5-oxadiazol-3-yl)-4-(methylsulfonyl)benzamide] | – | – | pest or weed control at 150 g/ha (Cyperus iria): 80 to 100% |
| Cc1nonc1NC(=O)c1ccc(S(C)(=O)=O)c(S(=O)(=O)CC2CC2)c1Cl [Compound 4-36, 2-chloro-3-((cyclopropylmethyl)sulfonyl)-N-(4-methyl-1,2,5-oxadiazol-3-yl)-4-(methylsulfonyl)benzamide] | – | – | pest or weed control at 150 g/ha (Cyperus iria): 80 to 100% |
| CCC[S+]([O-])c1c(S(C)(=O)=O)ccc(C(=O)N(C)c2nonc2C)c1Cl (centres unmarked) [Compound 4-272, 2-chloro-N-methyl-N-(4-methyl-1,2,5-oxadiazol-3-yl)-4-(methylsulfonyl)-3-(propylsulfinyl)benzamide] | – | – | pest or weed control at 150 g/ha (Eclipta prostrata): 80 to 100%; pest or weed control at 150 g/ha (Cyperus iria): 80 to 100% |
